Laboratory results published in patent publication US20260250277A1, “HYDRAZINO GROUP-CONTAINING COMPOUND” (CHIA TAI TIANQING PHARMACEUTICAL GROUP CO., LTD., priority 2022, published 2026).
Read-outs that look alike come from different tables or passages of the source.

Columns and labels:
[1] = test system: CHK2 phosphorylation of NCI-H2228 cells; assay: Inhibitory activity against CHK2 phosphorylation of NCI-H2228 cells (p-CHK2 Thr68 AlphaLISA); type: cell-based; details: Homo sapiens
Method: NCI-H2228 cells in a good growth state were collected, added to a centrifuge tube, adjusted to a cell density of 1.25×10^6 cells/mL, and seeded in a 384-well plate (8 μL/well). The cells were equilibrated in a cell incubator for 1.5 h, and then compounds were added using a nanoliter pipettor, such that the final concentrations of the compounds were 200 nM to 0.049 nM. In this experiment, the wells were set in duplicate, and a control well was set. After the mixture was further cultured for 1 h in the cell incubator, an assay was performed using a p-CHK2 (Thr68) assay kit (manufacturer: perkinelmer) and the Envision microplate reader AlphaLISA program. A four-parameter analysis was performed, a dose-response curve was fit, and IC50 was calculated.

[2] = biological target: DNA-PK (DNA-dependent protein kinase) (Homo sapiens, UniProt P78527); assay: Inhibitory activity against DNA-PK (p53 substrate, HTRF); type: biochemical
Method: (§1) DNA-PK kinase solution (concentration: 0.15 ng/μL) was added to assay wells at 6 μL/well, and different compounds dissolved in DMSO were added to the assay wells separately using a nanoliter pipettor, such that the final concentrations of the compounds were 10000 nM to 2.44 nM. In this experiment, the wells were set in duplicate, and a control well was set. After incubation of the above system for 30 min at room temperature, ATP (100 μM) was mixed with p53 substrate (50 nM) at a ratio of 1:1, and the mixture was added at 4 μL/well. The resulting mixture was left to react at room temperature for 2 h, and then 5 μL of EDTA was added to terminate the reaction, followed by addition of 5 μL of detection antibodies, Mab Anti-phospho p53 and Mab Anti GST-d2 (manufacturer: perkinelmer). The mixture was incubated at room temperature for 1 h. The plate was read using a PerkinElmer Envision multifunctional microplate reader (excitation: 320 nm, emission: 620 nm/665 nm), and IC50 was calculated by four-parameter fitting.

[3] = biological target: ATM kinase (Homo sapiens, UniProt Q13315); assay: Inhibitory activity against ATM kinase (p53 substrate, HTRF); type: biochemical
Method: as §1, with “ATM” for “DNA-PK”, “25” for “0.15”

[4] = biological target: ATR/ATPIP (ATR-interacting protein) kinase (Homo sapiens, UniProt Q13535); assay: Inhibitory activity against ATR kinase (p53 substrate, HTRF); type: biochemical
ATR/ATPIP (ATR-interacting protein) kinase, sequence (Q13535 whole entry): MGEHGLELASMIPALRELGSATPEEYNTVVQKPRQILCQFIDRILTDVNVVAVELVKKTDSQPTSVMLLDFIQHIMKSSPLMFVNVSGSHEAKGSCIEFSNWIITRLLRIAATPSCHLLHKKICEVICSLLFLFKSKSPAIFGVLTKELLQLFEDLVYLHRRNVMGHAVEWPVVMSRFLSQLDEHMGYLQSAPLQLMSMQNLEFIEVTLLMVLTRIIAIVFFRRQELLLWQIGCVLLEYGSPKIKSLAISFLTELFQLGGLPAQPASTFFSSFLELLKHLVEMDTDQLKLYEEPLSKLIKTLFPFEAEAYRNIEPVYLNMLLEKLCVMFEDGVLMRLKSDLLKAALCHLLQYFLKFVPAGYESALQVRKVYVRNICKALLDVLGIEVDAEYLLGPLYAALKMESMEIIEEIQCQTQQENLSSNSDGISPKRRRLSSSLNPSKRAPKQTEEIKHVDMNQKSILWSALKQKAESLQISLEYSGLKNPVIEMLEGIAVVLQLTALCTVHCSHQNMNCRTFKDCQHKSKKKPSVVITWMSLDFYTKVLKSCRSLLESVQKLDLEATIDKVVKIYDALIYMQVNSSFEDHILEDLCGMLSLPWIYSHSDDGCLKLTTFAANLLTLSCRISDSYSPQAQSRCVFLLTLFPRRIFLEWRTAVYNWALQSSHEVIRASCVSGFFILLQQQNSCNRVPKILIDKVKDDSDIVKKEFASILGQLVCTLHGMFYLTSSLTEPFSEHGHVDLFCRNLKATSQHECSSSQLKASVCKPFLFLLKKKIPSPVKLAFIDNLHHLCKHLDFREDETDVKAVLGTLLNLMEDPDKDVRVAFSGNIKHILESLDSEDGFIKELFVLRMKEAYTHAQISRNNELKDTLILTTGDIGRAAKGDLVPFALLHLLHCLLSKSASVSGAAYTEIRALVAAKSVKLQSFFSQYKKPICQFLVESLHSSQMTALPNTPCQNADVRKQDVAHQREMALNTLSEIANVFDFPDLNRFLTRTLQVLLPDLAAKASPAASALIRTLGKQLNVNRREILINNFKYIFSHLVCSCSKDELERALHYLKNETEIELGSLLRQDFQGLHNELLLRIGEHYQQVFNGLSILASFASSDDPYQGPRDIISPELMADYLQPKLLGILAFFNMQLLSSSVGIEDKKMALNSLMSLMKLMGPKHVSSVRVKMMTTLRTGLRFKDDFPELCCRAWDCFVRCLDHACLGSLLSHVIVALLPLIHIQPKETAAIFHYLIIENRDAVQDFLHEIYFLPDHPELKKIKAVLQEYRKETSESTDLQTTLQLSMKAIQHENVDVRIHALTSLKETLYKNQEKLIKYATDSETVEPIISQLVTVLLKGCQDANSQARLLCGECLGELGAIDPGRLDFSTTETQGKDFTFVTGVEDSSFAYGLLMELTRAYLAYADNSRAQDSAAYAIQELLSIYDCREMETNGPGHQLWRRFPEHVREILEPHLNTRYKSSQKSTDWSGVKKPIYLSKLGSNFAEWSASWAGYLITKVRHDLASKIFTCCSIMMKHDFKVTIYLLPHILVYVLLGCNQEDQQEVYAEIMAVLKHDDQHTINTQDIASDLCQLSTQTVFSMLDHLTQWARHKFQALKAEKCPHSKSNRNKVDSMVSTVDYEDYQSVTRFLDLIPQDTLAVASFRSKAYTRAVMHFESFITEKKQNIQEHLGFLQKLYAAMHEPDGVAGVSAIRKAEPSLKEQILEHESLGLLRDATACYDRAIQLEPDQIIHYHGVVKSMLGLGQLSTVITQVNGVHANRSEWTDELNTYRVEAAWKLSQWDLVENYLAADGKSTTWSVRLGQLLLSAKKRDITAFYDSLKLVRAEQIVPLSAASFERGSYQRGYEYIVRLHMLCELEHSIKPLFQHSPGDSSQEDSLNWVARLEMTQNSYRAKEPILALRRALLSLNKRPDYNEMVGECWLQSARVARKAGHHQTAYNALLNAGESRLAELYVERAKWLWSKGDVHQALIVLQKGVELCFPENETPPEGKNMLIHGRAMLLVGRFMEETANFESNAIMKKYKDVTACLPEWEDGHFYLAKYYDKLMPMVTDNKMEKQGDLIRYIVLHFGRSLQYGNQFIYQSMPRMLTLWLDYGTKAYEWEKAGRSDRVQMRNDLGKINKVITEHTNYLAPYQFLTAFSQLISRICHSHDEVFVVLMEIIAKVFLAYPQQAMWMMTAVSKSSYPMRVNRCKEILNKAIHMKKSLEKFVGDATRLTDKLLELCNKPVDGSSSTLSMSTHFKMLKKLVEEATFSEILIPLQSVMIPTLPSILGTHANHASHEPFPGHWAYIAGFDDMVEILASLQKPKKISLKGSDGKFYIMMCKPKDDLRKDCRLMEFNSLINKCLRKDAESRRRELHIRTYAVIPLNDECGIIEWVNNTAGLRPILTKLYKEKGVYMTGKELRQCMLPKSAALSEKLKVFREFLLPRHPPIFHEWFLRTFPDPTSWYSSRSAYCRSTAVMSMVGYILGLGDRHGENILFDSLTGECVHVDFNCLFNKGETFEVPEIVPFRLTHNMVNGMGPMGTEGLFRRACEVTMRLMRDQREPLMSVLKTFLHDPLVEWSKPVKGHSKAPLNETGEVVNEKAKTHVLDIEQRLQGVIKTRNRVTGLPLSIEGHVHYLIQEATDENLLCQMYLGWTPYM
ATR/ATPIP (ATR-interacting protein) kinase, sequence (Q8WXE1 whole entry partner): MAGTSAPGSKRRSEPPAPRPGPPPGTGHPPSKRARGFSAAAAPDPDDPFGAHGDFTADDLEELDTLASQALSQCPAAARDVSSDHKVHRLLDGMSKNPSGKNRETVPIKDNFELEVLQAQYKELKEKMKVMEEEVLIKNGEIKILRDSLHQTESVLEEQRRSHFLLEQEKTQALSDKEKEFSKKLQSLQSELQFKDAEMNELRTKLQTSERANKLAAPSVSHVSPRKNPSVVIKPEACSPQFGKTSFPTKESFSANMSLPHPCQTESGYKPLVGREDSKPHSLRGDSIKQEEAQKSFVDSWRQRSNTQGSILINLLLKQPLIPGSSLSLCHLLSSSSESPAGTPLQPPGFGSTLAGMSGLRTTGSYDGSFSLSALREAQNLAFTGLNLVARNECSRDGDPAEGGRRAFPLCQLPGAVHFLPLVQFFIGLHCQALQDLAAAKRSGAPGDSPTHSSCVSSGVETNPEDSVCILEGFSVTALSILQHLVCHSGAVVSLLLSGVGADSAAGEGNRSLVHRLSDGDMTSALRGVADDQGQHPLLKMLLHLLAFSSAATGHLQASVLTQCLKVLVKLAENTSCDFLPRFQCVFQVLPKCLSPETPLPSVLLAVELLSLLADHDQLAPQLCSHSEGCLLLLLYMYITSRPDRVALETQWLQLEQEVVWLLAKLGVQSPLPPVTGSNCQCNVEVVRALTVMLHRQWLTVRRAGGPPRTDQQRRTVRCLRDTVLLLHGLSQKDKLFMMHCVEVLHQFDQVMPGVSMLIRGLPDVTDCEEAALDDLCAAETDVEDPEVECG
Method: as §1, with “ATR/ATPIP (ATR-interacting protein)” for “DNA-PK”, “50” for “0.15”, “(5” for “(100”

[5] = In vivo pharmacokinetics (Table 4); details: for AUC(0-inf) / AUC(0-t) / half-life / MRT last / Vd / Cmax / Tmax: plasma; for MRT last: read-out: MRT(0-t); for Vd: read-out: Vz

Compound | IC50 [1] | IC50 [2] | IC50 [3] | IC50 [4] | other results
CNn1c(=O)n(C(C)C)c2c3cc(-c4ccc(OCCCN5CCCCC5)nc4)c(F)cc3ncc21 [Example 7] | < 50 nM | > 1000 nM | < 50 nM | > 1000 nM | –
COc1cc2ncc3c(c2cc1-c1ccc(OCCCN2CCCCC2)nc1)n(C(C)C)c(=O)n3N [Example 16] | – | > 1000 nM | < 50 nM | > 1000 nM | –
Nn1c(=O)n(C2CCOCC2)c2c3cc(-c4ccc(OCCCN5CCCC5)nc4)c(F)cc3ncc21 [Example 5] | < 50 nM | > 1000 nM | < 50 nM | > 1000 nM | –
CC(C)n1c(=O)n(N)c2cnc3cc(F)c(-c4ccc(OCCCN5C6CCC5CC6)nc4)cc3c21 [Example 27] | < 50 nM | > 1000 nM | < 50 nM | – | Absolute F ([5]; IG 10 mg/kg vs IV 1 mg/kg): 115.39%; CLz ([5]; IV, 1 mg/kg): 59.7 mL/min/kg; AUC(0-inf) ([5]; iv, 1 mg/kg): 280 ng·h/mL; AUC(0-t) ([5]; iv, 1 mg/kg): 271 ng·h/mL; half-life ([5]; iv, 1 mg/kg): 1.87 h; MRT last ([5]; iv, 1 mg/kg): 1.43 h; Vd ([5]; iv, 1 mg/kg): 6.11 L/kg; AUC(0-inf) ([5]; po, IG, 10 mg/kg): 3190 ng·h/mL; AUC(0-t) ([5]; po, IG, 10 mg/kg): 3130 ng·h/mL; Cmax ([5]; po, IG, 10 mg/kg): 342 ng/mL; Tmax ([5]; po, IG, 10 mg/kg): 2 h; half-life ([5]; po, IG, 10 mg/kg): 4.12 h; MRT last ([5]; po, IG, 10 mg/kg): 5.7 h
COC1CC(n2c(=O)n(N)c3cnc4cc(F)c(-c5ccc(OCCCN6CCCCC6)nc5)cc4c32)C1 (stereo not drawn) [Example 20] | < 50 nM | > 1000 nM | < 50 nM | > 1000 nM | –
CC(C)n1c(=O)n(N)c2cnc3cc(F)c(-c4ccc(OCCCN(C5CC5)C5CC5)nc4)cc3c21 [Example 4] | – | > 1000 nM | < 50 nM | > 1000 nM | –
COc1cc2ncc3c(c2cc1-c1ccc(OCCCN2CCCCC2)nc1)n(C1CC1)c(=O)n3N [Example 10] | – | > 1000 nM | < 50 nM | > 1000 nM | –
Nn1c(=O)n(C2CCOCC2)c2c3cc(-c4ccc(OCCCN5CCCCC5)nc4)c(F)cc3ncc21 [Example 15] | – | > 1000 nM | < 50 nM | > 1000 nM | –
COC1CC(n2c(=O)n(N)c3cnc4cc(F)c(-c5ccc(OCCCN(C)C)nc5)cc4c32)C1 (stereo not drawn) [Example 21] | < 50 nM | > 1000 nM | < 50 nM | > 1000 nM | –
COC1CCC(n2c(=O)n(N)c3cnc4cc(F)c(-c5ccc(OCCCN(C)C)nc5)cc4c32)C1 (stereo not drawn) [Example 14] | < 50 nM | > 1000 nM | < 50 nM | > 1000 nM | –
[2H]C([2H])([2H])Nn1c(=O)n(C(C)C)c2c3cc(-c4ccc(OCCCN5CCCCC5)nc4)c(F)cc3ncc21 [Example 8] | – | > 1000 nM | < 50 nM | > 1000 nM | –
COC1CCC(n2c(=O)n(N)c3cnc4cc(F)c(-c5ccc(OCCCN6CCCC6)nc5)cc4c32)C1 (stereo not drawn) [Example 13] | < 50 nM | > 1000 nM | < 50 nM | > 1000 nM | –
COc1cc2ncc3c(c2cc1-c1ccc(OCCCN2CCCC2)nc1)n(C(C)C)c(=O)n3N [Example 17] | < 50 nM | > 1000 nM | < 50 nM | > 1000 nM | –
CC(C)n1c(=O)n(N)c2cnc3ccc(-c4ccc(OCCCN5CCCCC5)nc4)cc3c21 [Example 1] | – | > 1000 nM | < 50 nM | 289 nM | –
Nn1c(=O)n(C2CCOCC2)c2c3cc(-c4ccc(OCCCN(C5CC5)C5CC5)nc4)c(F)cc3ncc21 [Example 6] | – | > 1000 nM | < 50 nM | > 1000 nM | –
COc1cc2ncc3c(c2cc1-c1ccc(OCCCN2CCCC2)nc1)n(C1CC1)c(=O)n3N [Example 11] | < 50 nM | > 1000 nM | < 50 nM | > 1000 nM | –
COC1CCC(n2c(=O)n(N)c3cnc4cc(F)c(-c5ccc(OCCCN6CCCCC6)nc5)cc4c32)C1 (stereo not drawn) [Example 12] | – | > 1000 nM | < 50 nM | > 1000 nM | –

More lines, main results first:

IC50 [1] | IC50 [2] | IC50 [3] | IC50 [4] | Compound | other results
< 50 nM | – | – | – | CC(C)n1c(=O)n(N)c2nnc3cc(F)c(-c4ccc(OCCCN5CCCCC5)nc4)cc3c21 [Example 32] | –
– | > 10000 nM | < 50 nM | > 10000 nM | Nn1c(=O)n(C2CC2)c2c3cc(-c4ccc(OCCCN5CCCCC5)nc4)c(F)cc3nnc21 [Example 36] | –
< 50 nM | > 1000 nM | < 50 nM | – | CC(C)n1c(=O)n(N)c2cnc3cc(F)c(-c4ccc(OCC5CC(N6CCCC6)C5)nc4)cc3c21 (stereo not drawn) [Example 22] | –
< 50 nM | > 1000 nM | < 50 nM | – | CC(C)n1c(=O)n(N)c2cnc3cc(F)c(-c4ccc(OCCCN5CC6(CCC6)C5)nc4)cc3c21 [Example 29] | AUC(0-inf) ([5]; iv, 1 mg/kg): 3160 ng·h/mL; AUC(0-t) ([5]; iv, 1 mg/kg): 3140 ng·h/mL; half-life ([5]; iv, 1 mg/kg): 3.22 h; MRT last ([5]; iv, 1 mg/kg): 3.29 h; Vd ([5]; iv, 1 mg/kg): 1.09 L/kg; AUC(0-inf) ([5]; po, IG, 10 mg/kg): 27300 ng·h/mL; AUC(0-t) ([5]; po, IG, 10 mg/kg): 27000 ng·h/mL; Cmax ([5]; po, IG, 10 mg/kg): 2300 ng/mL; Tmax ([5]; po, IG, 10 mg/kg): 4 h; half-life ([5]; po, IG, 10 mg/kg): 3.51 h; MRT last ([5]; po, IG, 10 mg/kg): 5.99 h
– | > 10000 nM | < 50 nM | > 10000 nM | CC(C)n1c(=O)n(N)c2nnc3cc(F)c(-c4ccc(OCCCN5CCCC5)nc4)cc3c21 [Example 34] | –
– | > 10000 nM | < 50 nM | > 10000 nM | CNn1c(=O)n(C(C)C)c2c3cc(-c4ccc(OCCCN5CCCC5)nc4)c(F)cc3nnc21 [Example 35] | –
< 50 nM | > 1000 nM | < 50 nM | – | CC(C)n1c(=O)n(N)c2cnc3cc(F)c(-c4ccc(OCCCN5CC(F)(F)C5)nc4)cc3c21 [Example 24] | –
< 50 nM | > 1000 nM | < 50 nM | – | CC(C)n1c(=O)n(N)c2cnc3cc(F)c(-c4ccc(OCCCN5CC(F)C5)nc4)cc3c21 [Example 23] | –
– | > 10000 nM | < 50 nM | > 10000 nM | Nn1c(=O)n(C2CC2)c2c3cc(-c4ccc(OCCCN5CCCC5)nc4)c(F)cc3nnc21 [Example 37] | –
< 50 nM | > 1000 nM | < 50 nM | – | CC(C)n1c(=O)n(N)c2cnc3cc(F)c(-c4ccc(OCCCN5CCC(CF)C5)nc4)cc3c21 (stereo not drawn) [Example 25] | –
< 50 nM | > 1000 nM | < 50 nM | – | CC(C)n1c(=O)n(N)c2cnc3cc(F)c(-c4ccc(OCCCN5CCC(F)(F)C5)nc4)cc3c21 [Example 26] | –
< 50 nM | > 10000 nM | < 50 nM | 8720 nM | COc1cc2ncc3c(c2cc1-c1ccc(OCCCN2CCCC2)nc1)n(-c1c(F)cncc1OC)c(=O)n3N [Example 31] | –
< 50 nM | > 1000 nM | < 50 nM | – | CC(C)n1c(=O)n(N)c2cnc3cc(F)c(-c4ccc(OCCCN5CC(CF)C5)nc4)cc3c21 [Example 28] | AUC(0-inf) ([5]; iv, 1 mg/kg): 2240 ng·h/mL; AUC(0-t) ([5]; iv, 1 mg/kg): 2230 ng·h/mL; half-life ([5]; iv, 1 mg/kg): 3.1 h; MRT last ([5]; iv, 1 mg/kg): 3.24 h; Vd ([5]; iv, 1 mg/kg): 1.5 L/kg; AUC(0-inf) ([5]; po, IG, 10 mg/kg): 17300 ng·h/mL; AUC(0-t) ([5]; po, IG, 10 mg/kg): 17200 ng·h/mL; Cmax ([5]; po, IG, 10 mg/kg): 1630 ng/mL; Tmax ([5]; po, IG, 10 mg/kg): 4 h; half-life ([5]; po, IG, 10 mg/kg): 3.04 h; MRT last ([5]; po, IG, 10 mg/kg): 5.56 h
– | > 10000 nM | < 50 nM | > 10000 nM | CNn1c(=O)n(C(C)C)c2c3cc(-c4ccc(OCCCN5CCCCC5)nc4)c(F)cc3nnc21 [Example 33] | –
– | > 10000 nM | < 50 nM | 8090 nM | COc1cc2ncc3c(c2cc1-c1ccc(OCCCN2CCCCC2)nc1)n(-c1c(F)cncc1OC)c(=O)n3N [Example 30] | –
